Here are results for one compound from US9782522B2, “Compositions and methods for treating and preventing neointimal stenosis” (Yale University, priority 2011, dated 2017).

For one test, the system named is ALK-1, -2, -3, and -6. The conditions noted are these: cited from earlier work.
The test system of another test is 3T3 human fibroblasts. The experiment in a line: Bioactivity of encapsulated SB-431542 (phosphorylated SMAD-2 after TGF-β1). It is filed as cell-based. Here is the method: SB-431542 was released into 1 ml PBS from 10 mg avidin-coated PLGA microparticles and one untrimmed SB-431542-eluting PGA-P(CL/LA) scaffold in 2 ml microcentrifuge tubes at 37° C. At 48 hours, samples were centrifuged at 13200 RPM for 10 minutes, supernatants were collected and analyzed by spectrophotometry at 320 nm. SB-431542 concentrations were adjusted to 10 μM by dilution with PBS. 3T3 human fibroblasts were plated at 500,000/well and stimulated at confluence with 700 ul 10 μM SB-431542 in PBS eluted from particles or scaffolds, a stock solution of 10 or 1 μM SB-431542 containing <1% DMSO, or PBS. After 30 minutes at 37° C., cells were washed and stimulated with 200 ul 2 ng/ml recombinant human TGF-β1 (BD Biosciences) for 1 hour at 37 C. Cells were lysed and protein samples were separated by gel electrophoresis with a 12% polyacrylamide gel and probed with primary antibody to phosphorylated SMAD-2 (ser426/ser428, Cell Signaling Technology) and secondary goat anti-rabbit IgG (Cell Signaling Technology). The gel was stripped and reprobed with anti-SMAD2/3 as a loading control.

A further test deals with HUAEC. The experiment in a line: qRT-PCR mRNA expression of TGFβ signaling and Endo-MT markers in endothelial cells. In kind it is cell-based, human. The conditions noted are these: FRS2 knockdown EC; 10 μM. From the text: Human 293T T17 cells (ATCC CRL-11268) were maintained in Dulbecco's modified Eagle's medium (Gibco) with 10% fetal bovine serum (Invitrogen) and penicillinstreptomycin (Gibco). Primary human mammary epithelial cells (HuMEC, Invitrogen), were maintained in HuMEC basal serum free medium with HuMEC supplement (Invitrogen 12754-016) and bovine pituitary extract (Invitrogen 13028-014). Human foreskin cells (ATCC CRL-1079Sk) were maintained in Minimum Essential Medium (ATCC) with 10% fetal bovine serum (Hyclone), β-mercaptoethanol (Sigma), and penicillin-streptomycin (Gibco). Primary human atrial cells (passage 3-5; gift from Y. Qyang, Yale University School of Medicine) were maintained in Dulbecco's modified Eagle's medium (Gibco) with 10% fetal bovine serum (Invitrogen), L-glutamine (Gibco), Sodium pyruvate (Gibco), Non-essential amino acid (Gibco), and penicillin-streptomycin (Gibco). HUAEC (human umbilical artery endothelial cells, passage 5-10, Lonza) were cultured in EBM-2 supplemented with EGM-2-MV bullet kit (Lonza). HUVEC (human umbilical vein endothelial cells, passage 3-7, Yale Vascular Biology and Therapeutics) were cultured in M199 with ECGS, supplemented with 20% FBS (Sigma), L-glutamine (Gibco), and penicillin-streptomycin (Gibco). Culture vessels were coated with 0.1% gelatin (Sigma) for 30 min at 37° C. immediately prior to cell seeding. Primary mouse endothelial cells were isolated from the heart using rat anti-mouse CD31 antibody and Dynabeads (Invitrogen) as previously described (Partovian C, et al. Mol Cell. 32(1):140 (2008)).
RNA was isolated using RNeasy® plus Mini Kit (Qiagen) and converted to cDNA using iScript™ cDNA synthesis kit (Bio-Rad). Quantitative real-time PCR (qRT-PCR) was performed using Bio-Rad […] (Bio-Rad) by mixing equal amount of eDNAs, iQ™ SYBR® Green Supermix (Bio-Rad) and gene specific primers. All reactions were done in a 25 μl reaction volume in duplicate. Data were normalized to endogenous β-actin. Values are expressed as fold change in comparison to control. Mouse TGFβ gene expression was quantified via qRT-PCR with TaqMan® Gene Expression Assays (Mm00441726_m1; Applied Biosystems) and HPRT (Mm00441258_1; Applied Biosystems) as endogenous control followed the manufacturer's recommendation. Quantitative PCR analysis of 84 TGFβ and epithelial to mesenchymal transition (EMT) related genes were performed using Human TGFβ BMP signaling pathway (PAHS-035D, QIAGEN) and Human Epithelial to Mesenchymal Transition (PAHS-090D, QIAGEN) RT^2 Profiler™ PCR Arrays following the manufacturer's protocol. RT^2 Profiler™ PCR arrays were run on a Bio-Rad CFX96 machine (Bio-Rad). Duplicate arrays were run per condition for control and FRS2 knockdown human umbilical arterial endothelial cells (HUAEC). Data analysis was performed using the manufacturer's integrated web-based software package for the PCR Array System using cycle threshold (Ct)-based fold-change calculations.
Recombinant human FGF2 (R&D) and TGFβ1 (Peprotech) were reconstituted in 0.1% BSA/PBS. U0126 (Sigma), a MEK inhibitor, was reconstituted in DMSO and used at a final concentration of 10 μM. SB431542 (Sigma), a TGFBR1 kinase inhibitor, was reconstituted in DMSO and used at a final concentration of 10 μM in cell culture. Actinomycin D (Sigma), a DNA transcription suppressor, was reconstituted in acetone and used at a final concentration of 10 μg/ml in cell culture. […]
For orientation: In qPCR the cycle at which signal appears reflects the starting amount.

In the case of `NC(=O)c1ccc(-c2nc(-c3ccc4c(c3)OCO4)c(-c3ccccn3)[nH]2)cc1` [SB431542, 4-[4-(1,3-Benzodioxol-5-yl)-5-(2-pyridinyl)-1H-imidazol-2-yl]-benzamide], in the test with ALK-1, -2, -3, and -6, the “Effect on ALK-1, -2, -3, and -6 and hence BMP signaling” value is “without effect”. Further, the “Biologic activity of the released drug” value in the test on 3T3 human fibroblasts (inhibitor added to the solvent used to make the grafts) is “continued biologic activity”. The “Biologic activity of the released drug” value in the test with 3T3 human fibroblasts (microparticle system) is on record as “maintains its biologic activity”. Also, in the test with HUAEC, the SM-calponin expression entry is “significantly decreased”, the fibronectin expression result is “significantly decreased” and the vimentin expression result is “significantly decreased”.
